# Measurements taken from ChEMBL document CHEMBL3639084, “Heterocyclic analogs of propargyl-linked inhibitors of dihydrofolate reductase” (2014).
# pIC50: −log10 of the molar value.
# Molecular target: T1, Dihydrofolate reductase (Homo sapiens, UniProt P00374)
# T1 sequence (P00374 whole entry): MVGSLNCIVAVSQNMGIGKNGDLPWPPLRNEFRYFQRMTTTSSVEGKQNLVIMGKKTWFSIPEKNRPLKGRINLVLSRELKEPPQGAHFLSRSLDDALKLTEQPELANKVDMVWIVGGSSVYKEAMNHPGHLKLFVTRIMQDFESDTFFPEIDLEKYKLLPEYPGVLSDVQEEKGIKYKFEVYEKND
# Assay: Spectrophotometric Enzyme Assay: Compounds were evaluated in spectrophotometric enzyme assays using ChDHFR-TS and hDHFR. Inhibition constants (IC50) were measured (see Table 4). The lead compound, X, has an inhibition constant of 38 nM and modest selectivity (8-fold).
structure (smiles),measurement,value
COc1cc(-c2ccccc2C)ccc1C(C)C#Cc1c(C)nc(N)nc1N (stereo unspecified),pIC50,5.56
